The text below walks through data of ChEMBL document CHEMBL5226308, “Amide-Amine Replacement in Indole-2-carboxamides Yields Potent Mycobactericidal Agents with Improved Water Solubility” (ACS Med Chem Lett, 2021).

Converted amounts (≈) assume the structure as drawn. The source made the active and inactive calls. The calls are words filed in the database; no cut-off is given here. A value given as a limit tells only on which side of the number the result lay.

One may read the MIC90 as the lowest concentration that inhibits either 90% of growth or 90% of the strains tested, depending on the study. The term MIC50 denotes an inhibitory concentration at the 50% level, which refers to growth in some studies and to a panel of isolates in others.

The subject of assay [1] is Mycobacterium tuberculosis variant bovis. The assay can be described thus: Antimycobacterial activity against Mycobacterium bovis BCG ATCC 35734 assessed as inhibition of bacterial growth incubated for 5 days in 7H9 standard media by broth dilution method. Format: functional. The settings on record: BCG ATCC 35734, 120 h, time 5 day. For orientation: Broth dilution looks for growth in wells or tubes with falling amounts of substance.

The test system is the same in assay [2]. The assay can be described thus: Myco-bactericidal activity against Mycobacterium bovis BCG ATCC 35734 assessed as inhibition of bacterial colony formation incubated for 5 days by agar plate method. It is filed as functional. The settings on record: BCG ATCC 35734, 120 h, time 5 day, read-out: MBC99.9.
Assay [3] has the same test system. The assay can be described thus: Antimycobacterial activity against Mycobacterium bovis BCG ATCC 35734 assessed as inhibition of bacterial growth incubated for 5 days in 7H9 medium with addition of 10% FBS by broth dilution method. It is filed as functional. The settings on record: BCG ATCC 35734, 120 h, time 5 day.
For assay [4] the test system is unchanged. The assay is described as follows: Disruption of proton motive force in Mycobacterium bovis BCG ATCC 35734 assessed as loss in mitochondrial membrane potential by measuring decline in fluorescence ratio at 4XMIC90 measured after >=12 hrs by DiOC2 based fluorescence analysis. It is filed as functional, organism-based.
The test system is the same in assay [5]. The assay is described as follows: Antimycobacterial activity against Mycobacterium bovis BCG ATCC 35734 assessed as inhibition of bacterial growth incubated for 5 days in 7H9 medium with omission of glycerol by broth dilution method. It is filed as functional. The settings on record: BCG ATCC 35734, 120 h, time 5 day.

On to `Fc1ccc2cc(CNC3CCCCCCC3)[nH]c2c1`, for which the MIC90 in assay [1] amounted to 0.43 µM (≈ 0.118 µg/mL).
Take `c1ccc2[se]c(CNC34CC5CC(CC(C5)C3)C4)cc2c1`: the MIC90 in assay [1] amounted to 2.7 µM (≈ 0.93 µg/mL).
Still for that read-out and setting: for `c1ccc2[se]c(CNC3CCCCCC3)cc2c1` the value was 5 µM (≈ 1.53 µg/mL); for `O=C(NC1CCCCCCC1)c1cc2ccc(O)cc2[nH]1`, 11 µM (≈ 3.15 µg/mL).
The same measure, in the same setting: with `O=C(NC1CCCCCCC1)c1cc2cc(OCc3ccccc3)ccc2[nH]1` the figure was 0.17 µM (≈ 0.064 µg/mL).
As to `Clc1ccc2cc(CNC3CCCCCCC3)[nH]c2c1`, the MIC90 in assay [1] was 0.1 µM (≈ 0.0291 µg/mL).
The same measure, in the same setting: with `c1ccc2sc(CNC34CC5CC(CC(C5)C3)C4)cc2c1` the figure was 3.6 µM (≈ 1.07 µg/mL); with `O=C(NC1CCCCCCC1)c1cc2ccc(C(F)(F)F)cc2s1`, 0.4 µM (≈ 0.142 µg/mL); with `c1ccc2[nH]c(CNC3CCCCCCC3)cc2c1`, 0.75 µM (≈ 0.192 µg/mL).
The same measure, in the same setting: with `FC(F)(F)c1ccc2cc(CNC3CCCCCCC3)[se]c2c1` the figure was 2 µM (≈ 0.777 µg/mL); with `Brc1ccc2[nH]c(CNC3CCCCCCC3)cc2c1`, 0.74 µM (≈ 0.248 µg/mL); with `Brc1ccc2cc(CNC3CCCCCCC3)[nH]c2c1`, 0.16 µM (≈ 0.0536 µg/mL).
Take `COc1ccc2cc(CNC3CCCCCCC3)[nH]c2c1`: in assay [1], the MIC90 is 1.2 µM (≈ 0.344 µg/mL).
Take `Brc1ccc2cc(CNC3CCCCCCC3)[se]c2c1`: the MIC90 in assay [1] was determined as 0.54 µM (≈ 0.216 µg/mL).
As for `O=C(NC1CCCCCCC1)c1cc2ccc(C(F)(F)F)cc2[nH]1`, the MIC50 in assay [1] is 0.02 µM (≈ 0.00677 µg/mL); in assay [3] it was 0.02 µM (≈ 0.00677 µg/mL); in assay [5] it was 0.01 µM (≈ 0.00338 µg/mL). For the same molecule, the results for the MIC90 in assay [1] and in assay [3] were 0.04 µM (≈ 0.0135 µg/mL) and 0.08 µM (≈ 0.0271 µg/mL), respectively. In assay [2], the MBC is 0.08 µM (≈ 0.0271 µg/mL). For the same molecule, the result in assay [4] was Active.
Regarding `COc1ccc2[nH]c(CNC3CCCCCCC3)cc2c1`, the MIC90 in assay [1] came out at 1.5 µM (≈ 0.43 µg/mL).
Consider `c1ccc2[se]c(CNC3CCCCCCC3)cc2c1`, for which the MIC90 in assay [1] worked out at 2.1 µM (≈ 0.673 µg/mL). The result in assay [4] was Active.
As for `O=C(NC1CCCCCC1)c1cc2ccccc2[se]1`, in assay [1], the MIC90 was 2.7 µM (≈ 0.865 µg/mL).
Still for that read-out and setting: for `NC(=O)c1cc2ccccc2s1` the value was more than 50 µM; for `Cc1cc(C)c2cc(C(=O)NC3CCCCCCC3)[nH]c2c1`, 0.04 µM (≈ 0.0119 µg/mL); for `O=C(NC1CCCCCCC1)c1cc2ccc(C(F)(F)F)cc2[se]1`, 1.8 µM (≈ 0.724 µg/mL).
As to `O=C(NC1CCCCCCC1)c1cc2ccc(F)cc2[nH]1`, in assay [1], the MIC90 turned out to be 0.18 µM (≈ 0.0519 µg/mL).
As to `O=C(NC1CCCCCC1)c1cc2ccccc2s1`, the MIC90 in assay [1] came out at 3 µM (≈ 0.82 µg/mL).
As to `O=C(NC1CCCCC1)c1cc2ccccc2[se]1`, the MIC90 in assay [1] was more than 50 µM.
On to `O=C(NC1CCCCCCC1)c1cc2ccc(Br)cc2[nH]1`, for which the MIC90 in assay [1] was 0.06 µM (≈ 0.021 µg/mL).
As to `c1ccc2sc(CNC3CCCCCC3)cc2c1`, in assay [1], the MIC90 is 5 µM (≈ 1.3 µg/mL).
Consider `O=C(NC1CCCCCCC1)c1cc2ccc(Br)cc2s1`, for which the MIC90 in assay [1] is 0.8 µM (≈ 0.293 µg/mL).
For `Fc1ccc2[nH]c(CNC3CCCCCCC3)cc2c1`, in assay [1], the MIC90 worked out at 0.33 µM (≈ 0.0905 µg/mL).
Same read-out and setting: for `Cc1cc(C)c2cc(CNC3CCCCCCC3)[nH]c2c1` the value was 0.25 µM (≈ 0.0711 µg/mL).
On the same count and under the same terms, with `O=C(NC1CCCCCCC1)c1cc2cc([N+](=O)[O-])ccc2[nH]1` the figure was 0.41 µM (≈ 0.129 µg/mL); with `O=C(NC1CCCCC1)c1cc2ccccc2s1`, more than 50 µM; with `c1ccc2[se]c(CNC3CCCCC3)cc2c1`, more than 35 µM.
Turning to `O=C(NC1CCCCCCC1)c1cc2ccc(Br)cc2[se]1`, the MIC90 in assay [1] worked out at 0.78 µM (≈ 0.322 µg/mL).
With `O=C(NC1CCCCCCC1)c1cc2ccccc2[se]1`, the MIC90 in assay [1] turned out to be 0.7 µM (≈ 0.234 µg/mL). Also, the result in assay [4] was Active.
Consider `O=C(NC1CCCCCCC1)c1cc2ccccc2s1`, for which the MIC90 in assay [1] was found to be 0.5 µM (≈ 0.144 µg/mL). Besides, the outcome in assay [4] was Active.
For `O=C(NC12CC3CC(CC(C3)C1)C2)c1cc2ccccc2[se]1`, the MIC90 in assay [1] was 1 µM (≈ 0.358 µg/mL).
The same measure, in the same setting: for `O=C(NC1CCCCC1)c1cc2ccc(C(F)(F)F)cc2[nH]1` the value was 1.6 µM (≈ 0.497 µg/mL).
On to `c1ccc2sc(CNC3CCCCC3)cc2c1`, for which, in assay [1], the MIC90 was more than 45 µM.
For `O=C(NC1CCCCCCC1)c1cc2cc(Br)ccc2[nH]1`, the MIC90 in assay [1] was found to be 1.1 µM (≈ 0.384 µg/mL).
For the molecule `FC(F)(F)c1ccc2cc(CNC3CCCCCCC3)[nH]c2c1`, the MIC50 in assay [1] is 0.04 µM (≈ 0.013 µg/mL); in assay [3], 0.07 µM (≈ 0.0227 µg/mL); in assay [5] it was 0.04 µM (≈ 0.013 µg/mL). Further, the MIC90 in assay [1] came out at 0.08 µM (≈ 0.026 µg/mL); in assay [3], 0.16 µM (≈ 0.0519 µg/mL). The MBC in assay [2] was determined as 0.16 µM (≈ 0.0519 µg/mL). In addition, the result in assay [4] was Active.
Take `COc1ccc2cc(C(=O)NC3CCCCCCC3)[nH]c2c1`: in assay [1], the MIC90 is 1.1 µM (≈ 0.33 µg/mL).
`NNC(=O)c1ccncc1` [ISONIAZID]: the MBC in assay [2] was 10 µM (≈ 1.37 µg/mL).
For the molecule `O=C(NC1CCCCCCC1)c1cc2cc(Cl)ccc2[nH]1`, the MIC90 in assay [1] worked out at 0.8 µM (≈ 0.244 µg/mL).
Same read-out and setting: for `O=[N+]([O-])c1ccc2[nH]c(CNC3CCCCCCC3)cc2c1` the value was 0.69 µM (≈ 0.208 µg/mL); for `c1ccc(COc2ccc3[nH]c(CNC4CCCCCCC4)cc3c2)cc1`, 0.31 µM (≈ 0.112 µg/mL).
On the same count and under the same terms, with `O=C(NC1CCCCCCC1)c1cc2cc(F)ccc2[nH]1` the figure was 0.61 µM (≈ 0.176 µg/mL); with `O=C(NC1CCCCCC1)c1cc2ccc(C(F)(F)F)cc2[nH]1`, 0.21 µM (≈ 0.0681 µg/mL).
Take `O=C(NC12CC3CC(CC(C3)C1)C2)c1cc2ccccc2s1`: the MIC90 in assay [1] was found to be 0.9 µM (≈ 0.28 µg/mL).
In the case of `COc1ccc2[nH]c(C(=O)NC3CCCCCCC3)cc2c1`, the MIC90 in assay [1] was 0.65 µM (≈ 0.195 µg/mL).
Regarding `Brc1ccc2cc(CNC3CCCCCCC3)sc2c1`, the MIC90 in assay [1] is 2.2 µM (≈ 0.775 µg/mL).
Same read-out and setting: with `Clc1ccc2[nH]c(CNC3CCCCCCC3)cc2c1` the figure was 0.22 µM (≈ 0.064 µg/mL).
In the case of `c1ccc2sc(CNC3CCCCCCC3)cc2c1`, in assay [1], the MIC90 was 3.4 µM (≈ 0.93 µg/mL). The outcome in assay [4] was Active.
Consider `O=C(NC1CCCCCCC1)c1cc2ccc(Cl)cc2[nH]1`, for which the MIC90 in assay [1] came to 0.11 µM (≈ 0.0335 µg/mL).
Same read-out and setting: with `O=C(NC1CCCCCCC1)c1cc2cc(O)ccc2[nH]1` the figure was 48 µM (≈ 13.7 µg/mL); with `FC(F)(F)c1ccc2cc(CNC3CCCCC3)[nH]c2c1`, 1.1 µM (≈ 0.326 µg/mL).
`FC(F)(F)c1ccc2cc(CNC3CCCCCCC3)sc2c1`: in assay [1], the MIC90 amounted to 0.78 µM (≈ 0.266 µg/mL).
Turning to `O=C(NC1CCCCCCC1)c1cc2ccc(OCc3ccccc3)cc2[nH]1`, in assay [1], the MIC90 was determined as 0.07 µM (≈ 0.0264 µg/mL).
As for `O=C(NC1CCCCCCC1)c1cc2ccccc2[nH]1`, the MIC90 in assay [1] came to 0.52 µM (≈ 0.141 µg/mL).
